According to PMC6197077 (Frontiers in Immunology, 2018):
Several values for one entry are separate records, joined by “and”; a condition that tells them apart may be missing. Equal values may be shown once. Entries after “also recorded” stand apart in the source; their conditions may differ. Read-outs that look alike come from different tables or passages of the source.

Key:
[1] = system: TCR of naïve P14 CD8+ T cells (TCR:pMHC, H2D^b); assay type: binding, mice; settings: for mean population 2D affinity (AcKa): naïve CD8+ P14 splenocytes, 50 contact cycles per cell, 3 individual experiments; for 2D affinity, result in words: naïve P14 CD8+ T cells
[2] = system: TCR and CD8 of naïve P14 CD8+ T cells (TCR:pMHC:CD8, D^b); assay type: binding, mice; settings: for normalized adhesion bonds, mean bond number (-ln(1-Pa(s))/mpMHC): P14 CD8+ T cells, wild type (CD8-intact) pMHC monomers, 3 individual experiments; for total bond number hierarchy: single P14 T cell probed against all three pMHC (Figure 2B)
[3] = system: P14 TCR (TCR:pMHC, D^b D227K); assay type: binding, mice; settings: for peak bond lifetime under force, CD8-null: BFP force-clamp, absence of CD8 (CD8-null pMHC), peak of force curve, >1,000 bond lifetimes per curve; for bond lifetime by BFP for the TCR alone: restated range in Discussion; for bond lifetime at ~10 pN, CD8-null: ~10 pN of force, CD8-null (Figures 3D,E)
[4] = system: P14 TCR with CD8 coreceptor (TCR:pMHC:CD8); assay type: binding, mice; settings: for peak bond lifetime under force, CD8-intact: BFP force-clamp, CD8-intact pMHC, peak of force curve, >1,000 bond lifetimes per curve; for bond lifetime at ~10 pN, CD8-intact: ~10 pN of force, CD8-intact (Figures 3F,G)
P14 CD8+ T cells [5] = assay type: cell-based, mice; settings: for %Nur77+: representative of 3 experiments, n = 3-4 mice; for signal strength as measured by Nur77 upregulation: P14 CD8 T cells re-stimulated ex vivo; for ligand potency: at equivalent peptide doses, not factoring in peptide loading
P14 CD8+ T cells [6] = assay type: cell-based, mice; settings: for IRF4 MFI at low peptide doses: P14 CD8+ T cells (Figure 4H)
P14 CD8+ T cells [7] = assay type: cell-based, mice
polyclonal CD8+ T cells [8] = assay type: cell-based, mice; settings: for Nur77 MFI: polyclonal CD8 T cells, 1 uM (Figure 6F)
polyclonal CD8+ T cells [9] = assay type: cell-based, mice
P14 TCR = settings: cited from earlier work; for Kd: SPR
MHC class I (D^b) = settings: terminal cysteine; ref [27], [34]-[36]; cited from earlier work
[10] = terminal cysteine; ref [27], [34]-[36]; cited from earlier work
pMHC (T-2D^b cell line) = settings: competition on T-2D^b cell line; versus 9-mer 41C; ref [8] Gairin et al.; cited from earlier work
Description: (§1) The question is to what extent loading of MHC affects the T cell response and their biology.

[11] = system: T cells interacting with dendritic cells; settings: peptide pulsed DCs, lymph node; versus 41C; ref Henrickson et al. [36]; cited from earlier work
Description: as §1

[12] = P14 CD8+ T cells, D8 p.i., range of peptide doses
[13] = Boulter et al., ref [52], read-out: 3D affinity (as restated in Discussion)

| Sequence | mean population 2D affinity (AcKa) [1] | normalized adhesion bonds, mean bond number (-ln(1-Pa(s))/mpMHC) [2] | total bond number hierarchy [2] | peak bond lifetime under force, CD8-null [3] | bond lifetime by BFP for the TCR alone [3] | bond lifetime at ~10 pN, CD8-null [3] | peak bond lifetime under force, CD8-intact [4] | bond lifetime at ~10 pN, CD8-intact [4] | %Nur77+ (P14 CD8+ T cells [5]; [12]) | signal strength as measured by Nur77 upregulation (P14 CD8+ T cells [5]) | ligand potency (P14 CD8+ T cells [5]) | IRF4 MFI at low peptide doses (P14 CD8+ T cells [6]) | Nur77 MFI (polyclonal CD8+ T cells [8]) | Kd (P14 TCR; [13]) | bond lifetime by SPR (P14 TCR; ref [51]) | 2D affinity, result in words [1] | also measured |
| --- | --- | --- | --- | --- | --- | --- | --- | --- | --- | --- | --- | --- | --- | --- | --- | --- | --- |
| KAVYNFATC [41C] | 6.62E-04 μm^4 | 1.01E-01 μm^2 | 41M> 41C> 41CGI | ~ 0.9 s | 0.8 to 0.9 s | longer bond lifetime than 41M and dramatically more so than 41CGI; also recorded: no significant difference in bond lifetime between 41M and 41C | ~ 1.9 s | no significant difference in bond lifetime between 41M and 41C | significantly higher frequencies of Nur77+ CD8+ T cells than those stimulated with 41CGI | significantly stronger signals than 41CGI stimulated cells | 41M > 41C > 41CGI | difference in IRF4 MFI | not significantly different | 2.3 µM | ~ 0.5 s |  | IRF4 MFI at highest peptide dose (P14 CD8+ T cells [6]; 1 uM peptide, P14 CD8+ T cells, 41C versus 41CGI): did not observe a difference between 41C and 41CGI; sensitivity to antigen (P14 CD8+ T cells [7]; 41M versus 41C, in our experiments): same sensitivity to antigen; functional responses read out by Nur77, IFNγ and IL-2 (P14 CD8+ T cells [7]; Discussion): larger responses; IRF4 expression (polyclonal CD8+ T cells [9]; polyclonal CD8 T cells, 1 uM, 41M versus 41C (Figures 6E-I)): only a slight difference between 41M and 41C; stability in the MHC (MHC class I (D^b)): decreased stability in the MHC; peptide dimer formation [10]: form peptide dimers |
| KAVYNFATCGI [41CGI] | 1.55E-04 μm^4 | 2.93E-02 μm^2 | 41M> 41C> 41CGI | ~ 0.1 s |  |  | ~ 1.5 s |  |  |  | 41M > 41C > 41CGI | difference in IRF4 MFI | not significantly different | 3.5 µM |  | lowest 2D affinity of the three, it still had a relatively high 2D affinity | fold increase of peak bond lifetime by CD8 contribution ([4]; CD8-intact versus CD8-null pMHC): 15 fold and ~ 15 fold; IRF4 MFI at highest peptide dose (P14 CD8+ T cells [6]): did not observe a difference between 41C and 41CGI; cytokine production (P14 CD8+ T cells [7]): significantly diminished cytokine production; efficiency at competing for pMHC (pMHC (T-2D^b cell line)): six times more efficient |
| KAVYNFATM [41M] | 1.04E-03 μm^4 | 6.40E-01 μm^2 | 41M> 41C> 41CGI | ~ 0.8 s | 0.8 to 0.9 s | no significant difference in bond lifetime between 41M and 41C | ~ 3.0 s | no significant difference in bond lifetime between 41M and 41C | higher percentage of CD8+ T cells re-stimulated with 41M expressed Nur77 | stronger signal than 41C; also recorded: significantly stronger signals than 41CGI stimulated cells | 41M > 41C > 41CGI | difference in IRF4 MFI |  |  | ~ 0.5 s | highest 2D affinity | peptide dose at which Nur77 MFI peaks (P14 CD8+ T cells [5]; P14 CD8+ T cells re-stimulated ex vivo): 0.31 µM; Nur77 MFI (P14 CD8+ T cells [5]; [12]): higher MFI (peaking at 0.31 uM) than 41C and dramatically more so than 41CGI; double producers of IFNγ and TNF (P14 CD8+ T cells [7]): significantly higher frequency; sensitivity to antigen (P14 CD8+ T cells [7]): same sensitivity to antigen; triple producers of IFNγ, TNF and IL-2 (P14 CD8+ T cells [7]): significantly higher frequency; IFNγ production (P14 CD8+ T cells [7]; P14 cells, range of peptide doses, 6 h ex vivo (Figures 5A,B)): produced the most IFNγ; agonist classification (P14 CD8+ T cells [7]; by 2D affinity measures and functionality): super agonist peptide variant; frequency of Nur77 expression (polyclonal CD8+ T cells [8]): increased frequencies of Nur77 expression; IRF4 expression (polyclonal CD8+ T cells [9]): only a slight difference between 41M and 41C; Kd (P14 TCR; ref [50], read-out: KD (3D affinity, SPR)): 17 µM; Kd (P14 TCR; ref [51], read-out: KD (3D affinity, SPR)): 9.1 µM; Kd (P14 TCR; ref [52], read-out: KD (3D affinity, SPR)): 2.3 µM; transition to phase two T cell:DC contacts [11]: transitioned more quickly to phase two |
